This is an account of results in ChEMBL document CHEMBL4387782, “A new approach to procyanidins synthesis with potent anti-adipogenic effects” (Bioorg Med Chem Lett, 2019).

Structures are written as SMILES. The source made the active and inactive calls. The calls are words filed in the database; no cut-off is given here.

The target in data set [1] is T1, Pancreatic triacylglycerol lipase (Sus scrofa, UniProt P00591).
T1 sequence (P00591 whole entry): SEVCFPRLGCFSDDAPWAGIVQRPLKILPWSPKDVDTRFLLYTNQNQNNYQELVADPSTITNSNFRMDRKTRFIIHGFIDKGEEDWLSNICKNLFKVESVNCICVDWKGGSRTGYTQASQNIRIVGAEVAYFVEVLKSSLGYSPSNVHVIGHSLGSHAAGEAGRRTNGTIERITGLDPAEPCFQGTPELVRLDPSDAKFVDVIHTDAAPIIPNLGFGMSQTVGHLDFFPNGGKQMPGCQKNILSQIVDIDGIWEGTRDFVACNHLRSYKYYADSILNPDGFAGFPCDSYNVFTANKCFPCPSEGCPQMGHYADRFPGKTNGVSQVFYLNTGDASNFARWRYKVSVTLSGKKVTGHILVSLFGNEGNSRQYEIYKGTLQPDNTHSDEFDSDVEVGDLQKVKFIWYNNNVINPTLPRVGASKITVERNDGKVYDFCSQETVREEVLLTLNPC
Briefly: Inhibition of porcine pancreatic lipase using pNPB as substrate measured after 30 mins.

Data set [2] can be described thus: Cytotoxicity against mouse 3T3L1 cells assessed as reduction in cell viability after 48 hrs by sulforhodamine B assay. The data set is classed as cell-based. Conditions: 3T3-L1 cells. In general terms: The SRB assay estimates cell density from bound dye.
The test system of data set [3] is 3T3-L1. The data set can be described thus: Cytotoxicity against mouse 3T3L1 cells assessed as effect on cell viability up to 50 uM by MTT assay. The data set is classed as cell-based. (In general: Formazan colour is commonly taken as a measure of viable cells.)
Data set [4] concerns 3T3-L1. Briefly: Inhibition of cell differentiation in mouse 3T3L1 cells assessed as reduction in pre-adipocyte differentiation into matured adipocytes at 2.5 to 10 uM incubated for 8 days in differentiation media by oil red O staining based method. In kind it is functional.
The subject of data set [5] is 3T3-L1. The data set can be described thus: Anti-adipogenic activity in mouse 3T3L1 preadipocytes assessed as decrease in lipid accumulation at 10 uM incubated for 8 days in differentiation media by Oil Red O staining based ELISA relative to control. The data set is classed as functional. More on the design: scale not given: the % may be the effect or the level left. (In general: ELISA stands for enzyme-linked immunosorbent assay.)

The subject of data set [6] is 3T3-L1. The data set can be described thus: Anti-adipogenic activity in mouse 3T3L1 preadipocytes assessed as decrease in lipid accumulation at 5 uM incubated for 8 days in differentiation media by Oil Red O staining based ELISA relative to control. In kind it is functional. Further details: scale not given: the % may be the effect or the level left.
Data set [7] relates to 3T3-L1. Briefly: Anti-adipogenic activity in mouse 3T3L1 preadipocytes assessed as decrease in lipid accumulation at 2.5 uM incubated for 8 days in differentiation media by Oil Red O staining based ELISA relative to control. In kind it is functional. More on the design: scale not given: the % may be the effect or the level left.
Data set [8] deals with T1, Pancreatic triacylglycerol lipase. Briefly: Inhibition of porcine pancreatic lipase using pNPB as substrate measured after 30 mins using plasma treated sample.

Usually IC50 stands for the concentration needed to halve the response being measured. `Oc1ccc([C@H]2Oc3c(Cc4c(O)cc(O)c5c4O[C@H](c4ccc(O)c(O)c4)[C@@H](O)C5)c(O)cc(O)c3C[C@@H]2O)cc1O` yielded an IC50 in data set [1] of 110 µM. Also, the MNTC at 48 h in data set [2] was 50 µM. Besides, in the data set on 3T3-L1 [3], the Activity entry is recorded as “Non-Toxic”.

Take `Oc1ccc([C@H]2Oc3cc(O)c(Cc4c(O)cc(O)c5c4O[C@H](c4ccc(O)c(O)c4)[C@@H](O)C5)c(O)c3C[C@@H]2O)cc1O`: in data set [1], the IC50 was determined as 102 µM. For the same molecule, the MNTC at 48 h in data set [2] worked out at 50 µM. In addition, in the data set on 3T3-L1 [3], the Activity entry is listed as “Non-Toxic”.

Molecule `Oc1ccc([C@H]2Oc3cc(O)c(Cc4c(O)cc5c(c4O)C[C@H](O)[C@@H](c4ccc(O)c(O)c4)O5)c(O)c3C[C@@H]2O)cc1O` came in with an IC50 in data set [1] of 78.7 µM. In addition, the MNTC at 48 h in data set [2] was 50 µM. Further, the Activity result in the data set with 3T3-L1 [3] is reported as “Non-Toxic”. Moreover, the inhibition entry in the data set with 3T3-L1 [4] is “Active”.

On to `Oc1ccc([C@H]2Oc3c(Cc4c(O)c(Cc5c(O)c(Cc6c(O)cc(O)c7c6O[C@H](c6ccc(O)c(O)c6)[C@@H](O)C7)c(O)c6c5O[C@H](c5ccc(O)c(O)c5)[C@@H](O)C6)c5c(c4O)C[C@H](O)[C@@H](c4ccc(O)c(O)c4)O5)c(O)cc(O)c3C[C@@H]2O)cc1O`, for which, in data set [1], half-maximal inhibition (IC50) was put at 18.8 µM. For the same molecule, the MNTC at 48 h in data set [2] turned out to be 50 µM. In addition, the Activity entry is given as “Non-Toxic” in the data set on 3T3-L1 [3], 67.2% with 3T3-L1 [5], 52.1% in the data set on 3T3-L1 [6] and 40.1% in the data set with 3T3-L1 [7]. Further, the inhibition result with 3T3-L1 [4] was “Active”.

Take `Oc1cc(O)c2c(c1)O[C@H](c1ccc(O)c(O)c1)[C@@H](O)C2` [CIANIDANOL]: the IC50 in data set [1] is greater than 500 µM; in data set [8], 340 µM.

Consider `Oc1ccc([C@H]2Oc3c(Cc4c(O)c(Cc5c(O)cc(O)c6c5O[C@H](c5ccc(O)c(O)c5)[C@@H](O)C6)c5c(c4O)C[C@H](O)[C@@H](c4ccc(O)c(O)c4)O5)c(O)cc(O)c3C[C@@H]2O)cc1O`, for which half-maximal inhibition in data set [1] (IC50) was put at 45.9 µM. For the same molecule, the MNTC at 48 h in data set [2] was found to be 50 µM. For the same molecule, the Activity result with 3T3-L1 [3] was “Non-Toxic”. In addition, in the data set with 3T3-L1 [4], the inhibition entry was “Active”.
